{"source": "patent US12409181B2", "about": "“Treatment for aortic aneurysms” (THE REGENTS OF THE UNIVERSITY OF CALIFORNIA, priority 2019, dated 2025)", "key": {"[1]": {"target": "T1, PKG1^RQ (Homo sapiens, UniProt Q13976, R177Q)", "T1 construct": "FLAG (N); made in house; host or cells: transiently transfected 293T cells (ATCC, CRL3216)", "T1 sequence (Q13976 1-671 R177Q)": "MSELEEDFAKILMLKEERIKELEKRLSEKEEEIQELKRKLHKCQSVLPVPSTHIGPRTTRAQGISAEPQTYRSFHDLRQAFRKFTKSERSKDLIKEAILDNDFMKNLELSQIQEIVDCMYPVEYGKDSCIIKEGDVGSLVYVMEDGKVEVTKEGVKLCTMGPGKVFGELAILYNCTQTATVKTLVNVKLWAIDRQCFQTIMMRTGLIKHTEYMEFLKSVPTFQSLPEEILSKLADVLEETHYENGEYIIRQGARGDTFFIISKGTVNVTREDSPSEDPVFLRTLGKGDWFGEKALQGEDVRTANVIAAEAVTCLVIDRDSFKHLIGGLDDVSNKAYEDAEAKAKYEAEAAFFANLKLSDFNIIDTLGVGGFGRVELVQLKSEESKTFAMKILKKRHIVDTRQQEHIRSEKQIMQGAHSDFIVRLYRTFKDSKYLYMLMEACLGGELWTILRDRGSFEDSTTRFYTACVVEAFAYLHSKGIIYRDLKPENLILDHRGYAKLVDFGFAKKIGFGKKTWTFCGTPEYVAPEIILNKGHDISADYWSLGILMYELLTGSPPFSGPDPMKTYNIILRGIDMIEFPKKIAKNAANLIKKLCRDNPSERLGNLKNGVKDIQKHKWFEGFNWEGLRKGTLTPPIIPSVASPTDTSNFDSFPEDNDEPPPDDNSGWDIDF", "test": "Kinase activity of purified PKG1^RQ", "assay_type": "biochemical", "conditions": "purified enzyme", "protocol": "PKG1 Purification and Activity Assays. Wild type and mutant PKG1^RQ were expressed with N-terminal FLAG epitope tags in transiently-transfected 293T cells (ATCC, CRL3216), purified with anti-FLAG beads and eluted with FLAG peptide, and kinase activity assays were performed.^41 Kinase activity in SMC and aortic extracts was measured using an optimized peptide in the presence of 1.25 μM protein kinase inhibitor peptide (PKI) to inhibit cAMP-dependent protein kinase.^65 Assays were performed with [γ-^32PO4]ATP (1.3 Ci/mmol; 50 μM) in the presence and absence of 3 μM cGMP, and were linear with time and protein concentration. In some assays, the PKG-specific inhibitory peptide DT2 was included at 10 μM."}, "[2]": {"system": "human aortic SMCs", "test": "Western blots (VASP phosphorylation, JNK activation) and OxyBlot protein oxidation in human SMCs", "assay_type": "cell-based", "protocol": "Western Blotting. Following anesthesia with ketamine (100 mg/kg) and xylazine (10 mg/kg) by intraperitoneal injection, mice were exsanguinated and perfused with ice-cold phosphate-buffered saline (PBS) containing protease inhibitor cocktail (Calbiochem #539131). Aortas were excised, cleaned from surrounding tissue, and snap-frozen in liquid nitrogen within 15 min of euthanasia. Frozen aortas were pulverized and sonicated (3×10 sec) in ice-cold RIPA buffer (50 mM NaCl, 50 mM Tris-HCl, pH 8, 1% NP-40, 0.1% SDS, 0.5% sodium deoxycholate) supplemented with 1 mM NaF, 1 mM β-glycerolphosphate, and protease inhibitor cocktail. Western blots were developed with primary antibodies specific for PKG1 (1:1000, Cell Signaling Technology; 3248, […] (1:1000, Cell Signaling Technology; 3114), GAPDH (1:1000, Cell Signaling Technology; 2118), β-actin (1:5000, Santa Cruz Biotechnology; 47778), and JNK-phospho-Thr^183/Tyr^185 (1:1000, Cell Signaling Technology; 9251). Blots were developed and visualized with enhanced chemiluminescence using LI-COR Odyssey (with ImageStudio, V5) or with film in the linear range of exposure (with densitometry scanning using ImageJ (V1.51). Protein carbonyl groups (aldehydes and ketones) were detected using the OxyBlot™ Protein Oxidation Detection Kit (Millipore EMD; S7150). Unprocessed scans of blots are provided in the Source Data file.\nSMC Culture and Adenovirus Infection. Murine aortic SMCs were isolated from the aortas of 8-12 week old wild type and PKG1^RQ/+ mice and were cultured in Smooth Muscle Basal Media (SmBM) containing 20% FBS, pyruvate, HEPES, L-glutamine, penicillin/streptomycin and growth factors (SmBM Bullet kit; CC-4149 from Lonza), as previously described.^69 Two independent cell isolates from wild type and PKG1^RQ mice were used at passage one. Human primary aortic SMCs were purchased from Lifeline Cell Technology (Frederick, MD, FC-0015) and cultured in VascuLife Basal Medium supplemented with recombinant epidermal growth factor, insulin, and fibroblast growth factor-b, ascorbic acid, L-glutamine, 20% FBS, gentamycin, and amphotericin (Vasculife SMC LifeFactors kit; LS-1040 from Lifeline Technologies). Human SMCs were used at passages 3-6. Adenovirus was generated using the ViraPower Adenoviral Expression System (Thermo Fisher).^67 Human SMCs were infected with virus expressing wild type or mutant human PKG1α (containing the R177Q mutation); the MOI was 3-10 and titrated to produce wild type and mutant kinase at 2-3 fold the level of endogenous PKG1 at 72 h post infection. […] For knock-down of NOX2 and NOX4, SMCs were infected with adenovirus expressing shNOX2 or shNOX4 oligomers (downstream of the U6 promoter) at an MOI of 100; H2O2 production and NADPH oxidase activity assays were performed 48 h later (as described below)."}, "[3]": {"system": "Prkg1^RQ/+ mice", "test": "Aging study: cobinamide in drinking water, Prkg1^RQ/+ mice", "assay_type": "in vivo"}, "[4]": {"system": "wild type mice", "test": "Cobinamide treatment: effects and toxicity in mice", "assay_type": "in vivo", "protocol": "(§1) Randomization and Drug Treatment of Mice. At the time of weaning, male and female litter mates were separated and randomly assigned to new cages. At the age of 6 months (aging studies) or 10-14 weeks (TAC studies), matched cages containing mice born within a three week period were randomly assigned to treatment versus vehicle groups. For aging studies, some mice received 1 mM trihistidyl-cobinamine (Cbi) in the drinking water, starting from the age of 6 months until 12 months. For gene expression studies, mice were treated with 1 mM Cbi for one month only, from 11-12 months of age. For TAC studies, some mice received 1 mg/ml N-acetylcysteine (NAC) in the drinking water starting 4 weeks before until 2 weeks after the surgery. The drugs were dissolved freshly each week and filter-sterilized; fluid intake was monitored weekly. The Cbi dose was calculated to be 50 mg/kg/d, and the NAC dose was 500 mg/kg/d. Aquohydroxyl-cobinamide was synthesized from cobalamine by removal of the 5,6-dimethyl-benzimidazol ring; trihistidyl-cobinamide was obtained by adding three molar equivalents of L-histidine to the aquohydroxyl cobinamide.^63 Purity of the drug was >95% by high-pressure liquid chromatography."}, "[5]": {"system": "Prkg1^RQ/+ mice", "test": "Aortic gene expression by quantitative RT-PCR after Cbi treatment", "assay_type": "in vivo", "conditions": "12 month-old Prkg1^RQ/+ mice, 1 mM Cbi in drinking water for 1 month", "protocol": "as §1\nQuantitative RT-PCR. Aortas were dissected and snap-frozen as described above; they were pulverized and immersed in Trizol (Molecular Res. Center, TR118). Total RNA was isolated, reverse-transcribed using iScript cDNA synthesis kit (Bio-Rad), and PCR was performed using a MX3005P real-time PCR detection system with Brilliant II SYBR Green Mix (Agilent Technologies) as described.^67 All primers were intron-spanning (except for 18S rRNA), and were tested with serial cDNA dilutions. Relative changes in mRNA expression were analyzed using the comparative 2^−ΔΔCt method, with 18S rRNA and phosphoglycerate kinase-1 serving as internal controls.^68"}, "[6]": {"conditions": "Prkg1^RQ/+ mice, 1 mM Cbi in drinking water from age 6 to 12 months"}}, "note": "Entries after “also recorded” stand apart in the source; their conditions may differ.", "data": [{"substance": "trihistidyl-cobinamide [Cbi]", "values": [{"measurement": "activity of purified PKG1^RQ", "setting": "[1]", "result": "no effect"}, {"measurement": "H2O2-induced JNK activation", "setting": "[2]; human SMCs", "result": "decreased"}, {"measurement": "H2O2-induced protein oxidation", "setting": "[2]; human SMCs", "result": "decreased"}, {"measurement": "protein oxidation in PKG1^RQ-expressing cells", "setting": "[2]; human SMCs expressing PKG1^RQ", "result": "reduced protein oxidation"}, {"measurement": "PKG activity in aortic extracts after treatment of the mice", "setting": "[3]; Cbi-treated mice", "result": "nor did Cbi treatment of the mice affect PKG activity"}, {"measurement": "prevention of age-related aortic pathology, including aortic dilation", "setting": "[3]; Prkg1^RQ/+ mice", "result": "highly effective"}, {"measurement": "SMC apoptosis in aortas", "setting": "[3]; [6]", "result": "reduced oxidative stress markers and SMC apoptosis in aortas of Prkg1^RQ/+ mice to values in WT mice"}, {"measurement": "SMC loss", "setting": "[3]; [6]", "result": "completely prevented"}, {"measurement": "elastin fiber breaks", "setting": "[3]; [6]", "result": "reduced elastin fiber breaks and media collagen content to levels in WT mice"}, {"measurement": "media collagen content", "setting": "[3]; [6]", "result": "reduced elastin fiber breaks and media collagen content to levels in WT mice"}, {"measurement": "oxidative stress markers in aortas", "setting": "[3]; [6]", "result": "reduced oxidative stress markers and SMC apoptosis in aortas of Prkg1^RQ/+ mice to values in WT mice; also recorded: reduced oxidative stress markers in the aorta"}, {"measurement": "aortic dilation", "setting": "[3]; Prkg1^RQ/+ mice, 1 mM Cbi in drinking water from age 6 to 12 months, ultrasound", "result": "completely prevented"}, {"measurement": "amount of Cys^43-oxidized, cross-linked PKG1 dimer in aortas", "setting": "[3]; wild type and Prkg1^RQ/+ mice", "result": "no effect"}, {"measurement": "serum homocysteine concentration", "setting": "[4]; Cbi-treated mice", "result": "normal"}, {"measurement": "serum methylmalonic acid concentration", "setting": "[4]; Cbi-treated mice", "result": "normal"}, {"measurement": "vitamin B12-dependent functions", "setting": "[4]; Cbi-treated mice", "result": "did not affect"}, {"measurement": "toxicity", "setting": "[4]; judged by normal weight, clinical appearance, blood counts, and liver and kidney function tests", "result": "no discernible toxicity"}, {"measurement": "effects in wild type mice", "setting": "[4]; wild type mice, Cbi in drinking water", "result": "no significant effects"}, {"measurement": "Ctgf mRNA in aortas", "setting": "[5]", "result": "reduced all five transcripts"}, {"measurement": "Hif1a mRNA in aortas", "setting": "[5]", "result": "reaching levels similar to those observed in wild type mice"}, {"measurement": "Nox4 mRNA in aortas", "setting": "[5]", "result": "reduced all five transcripts"}, {"measurement": "Tgfb1 mRNA in aortas", "setting": "[5]", "result": "reduced all five transcripts"}, {"measurement": "Vegfa mRNA in aortas", "setting": "[5]", "result": "reaching levels similar to those observed in wild type mice"}]}]}
